Where no end group is shown, it is not given here.
Experiments:
[1] = system: Candida albicans GDH18 strain; assay: Antimicrobial activity (CFU count, percentage of living cells) against Candida albicans GDH18; format: cell-based; details: 37° C., 90 minutes, 1 mM phosphate buffer
From the text: As the Candida, cariogenic bacteria and periodontal disease bacteria, the Candida albicans GDH18 strain, Streptococcus sobrinus B-13 strain, Streptococcus mutans NCTC10449 strain, Streptococcus mutans Ingbritt strain, Porphyromonas gingivalis Hudoi001 strain and Aggregatibacter actinomycetemcomitans Hudoe001 strain were used. The test strains were provided from Faculty of Dentistry, Hiroshima University, Japan, and Hiroshima University Dental Hospital.
(§1) The Candida albicans GDH18 strain was precultured using SD medium (Difco) at 37° C. for 24 hours under aerobic conditions. The Streptococcus sobrinus B-13 strain, Streptococcus mutans NCTC10449 strain and Streptococcus mutans Ingbritt strain were precultured using TSB medium (Difco) supplemented with 5% yeast extract (Difco) at 37° C. for 24 hours under aerobic conditions. The Porphyromonas gingivalis Hudoi001 strain and Aggregatibacter actinomycetemcomitans Hudoe001 strain were precultured using BHI medium (Difco) supplemented with hemin (5 mg/L) and vitamin K3 (1 mg/L) at 37° C. for 96 hours under anaerobic conditions with Anaero Pack System (Mitsubishi Gas Chemical Company, Inc.).
(§2) After the culture, the cells of the Candida, cariogenic bacteria and periodontal disease bacteria were collected by centrifugation at 1000×g, and washed twice with 1 mM phosphate buffer (pH 6.8). The cells were then suspended such that the final concentration was 1×10^8 cfu/ml or 1×10^7 cells/m. For suspension of the Streptococcus strains, ultrasonic treatment was also carried out.
(§3) Evaluation of the antimicrobial activity was carried out by the method by Edgerton and others (1998) with some modifications. With 20 mL of 1 mM phosphate buffer containing 0 to 25 μM Kog1 or Kog2 synthesized in Example 1, 20 μl of the suspension of the Candida albicans GDH18 strain cultured and prepared by the method described in the above Preparation Example was mixed, and the resulting mixture was incubated at 37° C. for 90 minutes with shaking. As a control, 20 ml of 1 mM phosphate buffer alone was used. The reaction was stopped by addition of 360 ml of YNB medium (Difco), and the number of colonies formed (colony forming units; CFUs) was counted together with the number of colonies in the control, to determine the percentage of living bacterial cells. That is, the equation of: (CFUs of suspension containing Kog1 or Kog2/CFU ml^−1 of control suspension)×100 was used to calculate the percentage.

[2] = system: Streptococcus mutans NCTC10449 strain; assay: Antimicrobial activity against Streptococcus mutans NCTC10449; format: cell-based; details: 0 to 100 μM, FIG. 4
[3] = Measurement of the isoelectric point of the synthesized peptides; format: physicochemical; details: synthesized peptide
From the text: Among antimicrobial peptides, hBD2 (human P-defensin-2 (see Eur J., 2002, Oral Sci. (109), 121-124)) is well known as a basic antimicrobial peptide, and has an isoelectric point of about 10. However, the isoelectric points of Kog1 and Kog2 of the embodiment 2 were higher than the isoelectric point of hBD2, and more similar to the isoelectric points of antimicrobial peptides derived from mammals. Thus, Kog1 and Kog2 were confirmed to have less cytotoxicity.

[4] = system: Streptococcus sobrinus B-13 strain; assay: Antimicrobial activity against Streptococcus sobrinus B-13; format: cell-based; details: tested 0 to 100 μM
Protocol: [The procedure below names another organism; the source lists this organism under the same test.] as §1, §2
as §3, with “percentage. […]” for “percentage.”

[5] = system: Porphyromonas gingivalis Hudoi001 strain; assay: Antimicrobial activity against Porphyromonas gingivalis Hudoi001; format: cell-based; details: not shown in the figures
Protocol: as §1, §2
That is, it is assumed that, in Examples described in Patent Literature 1, the Lactobacillus rhamnosus KO3 strain expressed Kog1 and Kog2, and the expressed Kog1 and Kog2 exerted antimicrobial activity against the Porphyromonas gingivalis Hudoi001 strain. […]

[6] = system: Porphyromonas gingivalis LPS (P.g-LPS) on RAW264.7 macrophage-like cells, ccl2; assay: LPS inactivation: ccl2 secretion of RAW264.7 cells (ELISA); format: cell-based, mouse; details: 100 ng/ml P.g-LPS preincubated 2 hours with 5, 10, 20 μM Kog1; as amount added increased
Protocol: (§4) As a medium, RPMI 1640 medium supplemented with 10% FBS (Fetal Bovine Serum) (Biological industries, Haemek, Israel), 1% antibiotic and 1% L-glutamine was used. In each well of a 24-well plate, 400 μl of the medium was placed, and 100,000 cells/well of mouse-derived RAW264.7 macrophage-like cells were inoculated thereto.
(§5) The bacteriocin Kog1 or Kog2, which was the same as in Example 1, was incubated in an Eppendorf tube under each of the following 4 conditions together with Porphyromonas gingivalis LPS (manufactured by InvivoGen) (hereinafter referred to as P.g-LPS) and the same medium as described above, at 37° C. under a gas phase of 5% CO2 for 2 hours: (1) 100 ng/ml P.g-LPS positive control; (2) 100 ng/ml P.g-LPS+5 μM Kog1 or Kog2; (3) 100 ng/ml P.g-LPS+10 μM Kog1 or Kog2; (4) 100 ng/ml P.g-LPS+20 μM Kog1 or Kog2.
(§6) The above-described medium placed in each well of the 24-well plate was removed using a pipetteman, and the medium in the Eppendorf tube for each of the 4 conditions described above was placed in the plate, followed by culturing the cells in the well plate at 37° C. under a gas phase of 5% CO2 for 12 hours. Thereafter, the culture supernatant was collected, and the amount of a chemokine ccl2 or the amount of a cytokine TNF-α secreted into the medium was quantified by the ELISA method by measuring the absorbance at 450 nm using a microplate reader. Since both ccl2 and TNF-α are involved in formation of inflammation, analysis of the relationship between the endotoxin LPS and the bacteriocins Kog1 and Kog2 is possible.

[7] = system: Streptococcus mutans Ingbritt strain; assay: Antimicrobial activity against Streptococcus mutans Ingbritt; format: cell-based; details: 0 to 100 μM, FIG. 5
[8] = system: Aggregatibacter actinomycetemcomitans Hudoe001 strain; assay: Antimicrobial activity against Aggregatibacter actinomycetemcomitans Hudoe001; format: cell-based; details: tested 0 to 50 μM
[9] = system: Porphyromonas gingivalis LPS (P.g-LPS) on RAW264.7 macrophage-like cells, TNF-α; assay: LPS inactivation: TNF-α secretion of RAW264.7 cells (ELISA); format: cell-based; details: 100 ng/ml P.g-LPS preincubated 2 hours with 5, 10, 20 μM Kog1; as amount added increased
Protocol: as §4, §5, §6

[10] = system: Candida albicans MYA274 strain; assay: Boiling experiment: antimicrobial activity (ATP) against Candida albicans MYA274; format: cell-based; details: concluded from supernatant boiled at 100° C. for 20 minutes; peptides not directly used
Protocol: In Example 9, antimicrobial activity against the Candida albicans MYA274 strain was investigated. The Candida albicans MYA274 strain was precultured in Sabouraud dextrose broth (Difco) at 37° C. for 24 hours, and then washed twice with MQ water, followed by being prepared such that OD600 is 0.3 (1.0×10^7 cells/ml).
In Example 9, the bacteriocin Kog1 or Kog2, or the Lactobacillus rhamnosus KO1 strain or KO3 strain, was not directly used. Instead, a lactic acid bacterium medium containing the Lactobacillus rhamnosus KO3 strain, 8020 yogurt (liquid type), was used in the experiment More specifically, the 8020 yogurt (liquid type) was prepared by adding the Lactobacillus rhamnosus KO3 strain at a concentration of 1% and YF-L811 starter at a concentration of 1% to the 15% skim milk+3% glucose medium, and then performing culture at 35° C. for 2 days.
Such 8020 yogurt (liquid type) was centrifuged to obtain a supernatant from which the lactic acid bacterium was removed (hereinafter referred to as Supernatant B). In the experiment, Supernatant B and a sample prepared by boiling Supernatant B at 100° C. for 20 minutes (hereinafter referred to as Supernatant Boil) were used. […]
In order to study changes in the antimicrobial activity by boiling, the following 3 kinds of samples were placed in a 24-well plate, and the value of ATP (pmol/L) after 24 hours of incubation at 37° C. was measured. […]

[11] = well known basic antimicrobial peptide, literature; cited from earlier work

Molecule: C[C@@H]1[C@H](O)[C@@H](C)/C=C/C=C/C=C/C=C/C=C/C=C/C=C/[C@H](O[C@@H]2O[C@H](C)[C@@H](O)[C@H](N)[C@@H]2O)C[C@@H]2O[C@](O)(C[C@@H](O)C[C@@H](O)[C@H](O)CC[C@@H](O)C[C@@H](O)CC(=O)O[C@H]1C)C[C@H](O)[C@H]2C(=O)O [amphotericin B]
- peptide concentration at which 100% of the strain was killed [1]: 5 µM

Molecule: JH8194: antimicrobial peptide of JP 3472821 B (amino acid sequence shown in SEQ ID NO: 7) (KRLFRRWQWRMKKY; Antimicrobial peptide)
- peptide concentration at which 100% of the strain was killed [1]: 2.5 µM

Molecule: Kog1: peptide having the amino acid sequence shown in SEQ ID NO: 1, bacteriocin of Lactobacillus rhamnosus, synthesized by the tea-bag method (MAKARPSRPRPLTLRSLTAPAHAHKKWASRWILSMRLARVFGIEKPHG; listed as Lactobacillus rhamnosus)
- antimicrobial activity compared to the other antimicrobial peptides (hBD2, lysozyme) [2]: capable of killing a larger amount of Streptococcus mutans even at relatively low peptide concentration
- isoelectric point (pl) [3]: 12.90
- peptide concentration at which 100% of the strain was killed [4]: 1.56 µM
- antimicrobial activity [5]: capable of exerting antimicrobial activity
- peptide concentration at which 100% of the strain was killed [1]: 0.39 µM
- amount of the chemokine ccl2 secreted [6]: decreased
- antimicrobial activity compared to the other antimicrobial peptides (hBD2, lysozyme) [7]: capable of killing a larger amount of Streptococcus mutans even at relatively low peptide concentration
- peptide concentration at which 100% of the strain was killed [8]: 3.13 µM
- amount of the cytokine TNF-α secreted [9]: decreased
- heat resistance (antimicrobial activity after heating) [10]: still maintain antimicrobial activity after heating

Molecule: hBD2: human β-defensin-2, well known basic antimicrobial peptide (GIGDPVTCLKSGAICHPVFCPRRYKQIGTCGLPGTKCCKKP; ends and bridges not checked; cysteine pairing not given here; UniProt O15263 24-64, looked up) [reference compound]
- peptide concentration at which 100% of the strain was killed [4]: 3.125 µM
- isoelectric point [11]: about 10

Molecule: histatin 5: antimicrobial peptide derived from human saliva (amino acid sequence shown in SEQ ID NO: 6) (DSHEKRHHGYKRKFHEKHHSHRGY; Antimicrobial peptide)
- peptide concentration at which 100% of the strain was killed [1]: 100 µM

Molecule: lactoferricin B: antimicrobial peptide derived from milk (amino acid sequence shown in SEQ ID NO: 5) (FKCRRWQWRMKKLGAPSITCVRRAF; Antimicrobial peptide)
- peptide concentration at which 100% of the strain was killed [1]: 5 µM
